Measurements from PubChem BioAssay AID1963429 (Molecular Pharmacology Branch, DTP, NCI, 2024).
Where “and” joins values, the source holds several entries; their conditions need not be identical. Identical values can stand only once.

System: 126254-015-R-J1-PDC complex spheroid growth, % test/control
Experiment: Anticancer human tumor 126254-015-R-J1-PDC patient-derived soft tissue sarcoma cell line growth inhibition [Asc]
Conditions: for viability, T/C: stronger effect = lower value
Method: Multicellular complex tumor spheroid response to apoptosis pathway targeting inhibitors Alrizomadlin, Pelcitoclax, and Dasminapant in combination with a variety of drugs and investigational agents in selected tumor cell lines
The MDM2 inhibitor alrizomadlin, the Bcl-2/Bcl-xL inhibitor pelcitoclax, and the IAPs inhibitor dasminapant were evaluated both individually and in combination with standard of care and investigational anticancer small molecules within a complex spheroid model of solid tumors. . Complex spheroids include a stromal component modeled by human endothelial cells (HUVEC) and fibroblasts modeled by human mesenchymal stem cells (MSCs). The concentration ranges selected for each drug and investigational agent were based upon clinically achievable concentrations if the clinical Cmax of the agent was known.
Compounds. The drugs and investigational agents: alrizomadlin (APG-115; NSC831270), pelcitoclax (APG-1252; NSC835773), dasminapant (APG-1387;NSC834197), TAK-243 (NSC785004), copanlisib (NSC809693), olaparib (NSC753686), talazoparib (NSC767125), cobimetinib (NSC 768068), eltanexor (KPT-8602, NSC 794443), abemaciclib (NSC 768073), sotorasib (NSC818433), adagrasib (NSC 831453), MRTX-1133 (NSC 836407), Iadademestat (ORY1001, NSC 806812), and RMC-4630 (NSC839698), were obtained from the NCI Developmental Therapeutics Program Chemical Repository. The FDA-approved anticancer drug set is available from the Developmental Therapeutics Program at https://dtp.cancer.gov/organization/dscb/obtaining/available plates.htm. […] The stock solutions were prepared in dimethyl sulfoxide (DMSO, Sigma-Aldrich, St. Louis, MO, cat. D2650) at 800-fold the tested concentration and stored at -70 degrees C prior to their use. All drugs and investigational agents were tested over a range starting from a high concentration at or near the clinical Cmax and decreasing in half-log increments. If the clinical Cmax for an agent had not been determined, the highest concentration tested was 10 microM.
The patient-derived cancer (PDC) cell lines include five colon adenocarcinomas: 186277-243-T-J2-PDC, 616215-338-R-J1-PDC, 439559-082-T-J2-PDC, 463943-066-T-J2-PDC, and 519858-162-T-J1-PDC; three pancreatic carcinomas: 323965-272-R-J2-PDC, 521955-158-R6-J3-PDC, and 521955-158-R2-J5-PDC; two uterine sarcomas: 327498-152-R-J2-PDC and 993429-296-R-J1-PDC; two rhabdomyosarcomas: 755483-174-R-J1-PDC and 772245-204-R-J1-PDC; two soft tissue sarcomas: 126254-015-R-J1-PDC and 494315-158-R-J1-PDC; two malignant fibrous histiocytomas: 317291-083-R-J1-PDC and 596521-263-R-J1-PDC; two breast carcinomas: 171881-019-R-J1-PDC and 885512-296-R-J2-PDC; and one ovarian carcinoma: 6556581-035-R-J-PDC were obtained from the NCI PDMR, (https://pdmr.cancer.gov). The established cell lines HSSY-2 synovial sarcoma (RRID:CVCL 8719), SYO-1 synovial sarcoma (RRID:CVCL_7146), MPNST malignant peripheral neural sheath tumor were obtained from the Sloan Kettering Institute. The following established cell lines were purchased from the American Type Culture Collection (ATCC, Manassas, VA), Sor the received from the NCI repository:, PANC-1 pancreatic carcinoma (CRL-1469, RRID:CVCL_0480), OVCAR-5 ovarian carcinoma (RRID:CVCL_1628), OVCAR-8 ovarian carcinoma (RRID:CVCL_1629), , MCF-7 breast carcinoma (CRL-12584, RRID:CVCL_0031), MDA-MB-231 breast carcinoma (CRL-12532, RRID:CVCL_0062), NCI-H1876 small cell lung carcinoma (CRL-5902, RRID:CVCL_1503), NCI-H510A small cell lung carcinoma (HTB-184, RRID:CVCL_1565), NCI-H1417 (CRL-5869, RRID:CVCL_1469), and NCI-H196 small cell lung carcinoma (CRL-5823, RRID:CVCL_1509). Dr. Peter Houghton (Greehey Children's Cancer Research Institute, University of Texas Health Science Center, San Antonio, TX) provided Rh-18 rhabdomyosarcoma (RRID:CVCL_1659). Pooled donor human umbilical vein endothelial cells (HUVEC, Lonza, cat. CC-2519) and human mesenchymal stem cells (hMSC, Lonza, cat. PT-2501) were purchased from Lonza (Walkersville, MD).
Cell Culture. […]

[1] = curve of first compound, second compound 0.1 µM
[2] = curve of first compound, second compound 0.316 µM
[3] = curve of first compound, second compound 1 µM
[4] = curve of first compound, second compound 3.16 µM
[5] = curve of first compound, second compound 10 µM
[6] = second compound 0.1 µM, first compound 0.0316 µM
[7] = second compound 0.1 µM, first compound 0.1 µM
[8] = second compound 0.316 µM, first compound 0.0316 µM
[9] = second compound 0.316 µM, first compound 0.1 µM
[10] = second compound 1 µM, first compound 0.0316 µM
[11] = second compound 1 µM, first compound 0.1 µM
[12] = second compound 3.16 µM, first compound 0.0316 µM
[13] = second compound 3.16 µM, first compound 0.1 µM
[14] = second compound 10 µM, first compound 0.0316 µM
[15] = second compound 10 µM, first compound 0.1 µM
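Note: spheroids exposed to compound for seven days.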
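Throughout, for viability, T/C: 100% = DMSO vehicle control wells.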

Compound `C=C(F)C(=O)N1CCN(c2nc(OCC3CCCN3C)nc3c2CCN(c2cccc4cccc(Cl)c24)C3)CC1CC#N` (configuration not stated) + Cc1c(S(C)(=O)=O)c(-c2cc(F)cc(N3CCN(c4ccc(NS(=O)(=O)c5ccc(NC(CCN6CCC(C(=O)OCCCP(=O)(O)O)CC6)CSc6ccccc6)c(S(=O)(=O)C(F)(F)F)c5)cc4)CC3)c2)c(-c2ccc(Cl)cc2)n1C(C)C has an IC50 [1] of 1860 nM, an IC50 [2] of 1390 nM and an IC50 [3] of 1360 nM. The IC50 [4] was 772 nM, the IC50 [5] was 1390 nM and the viability, T/C [6] was 87.2%. It also gave a viability, T/C [7] of 97.2%, a viability, T/C (second compound 0.1 µM, first compound 0.316 µM) of 89.6% and a viability, T/C (second compound 0.1 µM, first compound 1 µM) of 76.5%. For the same compound, the viability, T/C (second compound 0.1 µM, first compound 3.16 µM) was 27.4%, the viability, T/C (second compound 0.1 µM, first compound 10 µM) was 0.18% and the viability, T/C [8] was 83%. For the same compound, the viability, T/C [9] was 91.2%, the viability, T/C (second compound 0.316 µM, first compound 0.316 µM) was 80.2% and the viability, T/C (second compound 0.316 µM, first compound 1 µM) was 61%. The viability, T/C (second compound 0.316 µM, first compound 3.16 µM) was 22.8%, the viability, T/C (second compound 0.316 µM, first compound 10 µM) was 0.13% and the viability, T/C [10] was 83.5%. It also gave a viability, T/C [11] of 66.3%, a viability, T/C (second compound 1 µM, first compound 0.316 µM) of 76.3% and a viability, T/C (second compound 1 µM, first compound 1 µM) of 57.7%. It also gave a viability, T/C (second compound 1 µM, first compound 3.16 µM) of 27.2%, a viability, T/C (second compound 1 µM, first compound 10 µM) of 0.14% and a viability, T/C [12] of 88.3%. It also gave a viability, T/C [13] of 75%, a viability, T/C (second compound 3.16 µM, first compound 0.316 µM) of 61.5% and a viability, T/C (second compound 3.16 µM, first compound 1 µM) of 51.7%. It also gave a viability, T/C (second compound 3.16 µM, first compound 3.16 µM) of 20.5%, a viability, T/C (second compound 3.16 µM, first compound 10 µM) of 0.13% and a viability, T/C [14] of 79.2%. It also gave a viability, T/C [15] of 77.5%, a viability, T/C (second compound 10 µM, first compound 0.316 µM) of 77.8% and a viability, T/C (second compound 10 µM, first compound 1 µM) of 62.4%. The viability, T/C (second compound 10 µM, first compound 3.16 µM) was 18.5% and the viability, T/C (second compound 10 µM, first compound 10 µM) was 0.2%.

`Cn1ncnc1[C@H]1c2n[nH]c(=O)c3cc(F)cc(c23)N[C@@H]1c1ccc(F)cc1` + Cc1c(S(C)(=O)=O)c(-c2cc(F)cc(N3CCN(c4ccc(NS(=O)(=O)c5ccc(NC(CCN6CCC(C(=O)OCCCP(=O)(O)O)CC6)CSc6ccccc6)c(S(=O)(=O)C(F)(F)F)c5)cc4)CC3)c2)c(-c2ccc(Cl)cc2)n1C(C)C gave an IC50 [1] greater than 100 nM, an IC50 [2] greater than 100 nM and an IC50 [3] greater than 100 nM. It also gave an IC50 [4] greater than 100 nM, an IC50 [5] of 99.3 nM and a viability, T/C (second compound 0.1 µM, first compound 0.000316 µM) of 90.6%. The viability, T/C (second compound 0.1 µM, first compound 0.001 µM) was 89.9%, the viability, T/C (second compound 0.1 µM, first compound 0.00316 µM) was 82.1% and the viability, T/C (second compound 0.1 µM, first compound 0.01 µM) was 73.9%. It also gave a viability, T/C [6] of 76.9%, a viability, T/C [7] of 65.2% and a viability, T/C (second compound 0.316 µM, first compound 0.000316 µM) of 87.7%. For the same compound, the viability, T/C (second compound 0.316 µM, first compound 0.001 µM) was 79%, the viability, T/C (second compound 0.316 µM, first compound 0.00316 µM) was 71.6% and the viability, T/C (second compound 0.316 µM, first compound 0.01 µM) was 69.2%. It also gave a viability, T/C [8] of 69.7%, a viability, T/C [9] of 58.5% and a viability, T/C (second compound 1 µM, first compound 0.000316 µM) of 79%. It also gave a viability, T/C (second compound 1 µM, first compound 0.001 µM) of 85.1%, a viability, T/C (second compound 1 µM, first compound 0.00316 µM) of 78.4% and a viability, T/C (second compound 1 µM, first compound 0.01 µM) of 63.9%. The viability, T/C [10] was 64%, the viability, T/C [11] was 61.6% and the viability, T/C (second compound 3.16 µM, first compound 0.000316 µM) was 83.4%. It also gave a viability, T/C (second compound 3.16 µM, first compound 0.001 µM) of 68%, a viability, T/C (second compound 3.16 µM, first compound 0.00316 µM) of 70.3% and a viability, T/C (second compound 3.16 µM, first compound 0.01 µM) of 61%. It also gave a viability, T/C [12] of 57.5%, a viability, T/C [13] of 55% and a viability, T/C (second compound 10 µM, first compound 0.000316 µM) of 82%. It also gave a viability, T/C (second compound 10 µM, first compound 0.001 µM) of 72%, a viability, T/C (second compound 10 µM, first compound 0.00316 µM) of 77.7% and a viability, T/C (second compound 10 µM, first compound 0.01 µM) of 68.7%. For the same compound, the viability, T/C [14] was 55.2% and the viability, T/C [15] was 50%.

In the case of `CCN1C(C(=O)NC23CCC(C(=O)O)(CC2)CC3)C(c2cccc(Cl)c2F)C2(C(=O)Nc3cc(Cl)ccc32)C12CCCCC2` (configuration not stated), the viability, T/C (compound 0.00949 µM) is reported as 105% and 96.1%, the viability, T/C (compound 0.03 µM) is reported as 95.4% [middle of 15 runs] and the viability, T/C (compound 0.0949 µM) is reported as 96.8% [middle of 15 runs]. For the same compound, the viability, T/C (compound 0.3 µM) was 93.5% [middle of 15 runs], the viability, T/C (compound 0.949 µM) was 96.8% [middle of 15 runs] and the IC50 (compound alone, run of 09/27/2022) was greater than 3000 nM. The IC50 (curve of compound) was greater than 3000 nM.
